According to ChEMBL document CHEMBL3046888, “Antiviral and Antifungal Activities of Some Naphthoquinones Isolated from the Roots of Lithospermum erythrorhizon” (J Pestic Sci, 1998):
Active and inactive are the calls of the source. No cut-off for these calls is given here.

What was measured:
[1] = tested on: Cladosporium herbarum; assay: Antifungal activity against Cladosporium herbarum assessed as inhibition at 250 nmol in 8 mm disk; type: functional
[2] = tested on: Tobacco mosaic virus; assay: Antiviral activity against Tobacco mosaic virus (TMV) in compound treated tobacco leaf assessed as growth inhibition at 5 mM at 25 degC for 3 days (16 hr in light) by half-leaf method; type: functional
[3] = tested on: Nicotiana tabacum; assay: Phytotoxicity against Nicotiana tabacum (tobacco) plant at 25 mM; type: organism-based; details: in vivo, 25000 µM
[4] = tested on: Cladosporium herbarum; assay: Antifungal activity against Cladosporium herbarum assessed as inhibition at 10 nmol in 8 mm disk; type: functional
[5] = tested on: Cladosporium herbarum; assay: Antifungal activity against Cladosporium herbarum assessed as inhibition at 50 nmol in 8 mm disk; type: functional
[6] = tested on: Cladosporium herbarum; assay: Antifungal activity against Cladosporium herbarum assessed as inhibition at 1250 nmol in 8 mm disk; type: functional
[7] = tested on: Tobacco mosaic virus; assay: Antiviral activity against Tobacco mosaic virus (TMV) in compound treated tobacco leaf assessed as growth inhibition at 25 mM at 25 degC for 3 days (16 hr in light) by half-leaf method; type: functional; set-up: dose or concentration left out as unconfirmed

Row | SMILES | diameter of the inhibition zone (DIZ) [1] [mm] | inhibition at 5000 µM [2] [%] | Activity [3] | diameter of the inhibition zone (DIZ) [4] [mm] | diameter of the inhibition zone (DIZ) [5] [mm] | diameter of the inhibition zone (DIZ) [6] [mm] | inhibition [7] [%] | inhibition [2]
1 | CC(C)=CC[C@@H](OC(=O)CC(C)(C)O)C1=CC(=O)c2c(O)ccc(O)c2C1=O [BETA-HYDROXYISOVALERYLSHIKONIN] | 16 | 44 | Toxic | 9.1 | 13.8 | 17.6 |  | 
2 | CC(C)=CC[C@@H](OC(=O)C=C(C)C)C1=CC(=O)c2c(O)ccc(O)c2C1=O [DIMETHYLACRYLSHIKONIN] |  | 26 |  |  |  |  | 70.2 | 
3 | CC(=O)O[C@H](CC=C(C)C)C1=CC(=O)c2c(O)ccc(O)c2C1=O [ACETYLSHIKONIN] | 13.3 | 73.2 |  | 10.1 | 13 | 13.4 | 78.7 | 
4 | CC(C)=CC[C@@H](OC(=O)C(C)C)C1=CC(=O)c2c(O)ccc(O)c2C1=O [ISOBUTYLSHIKONIN] |  | 49.5 |  |  |  |  | 75.5 | 
5 | CC(C)=CC[C@@H](OC(=O)CC(C)C)C1=CC(=O)c2c(O)ccc(O)c2C1=O |  | 46 |  |  |  |  | 86.1 | 
6 | CCC(=O)O[C@H](CC=C(C)C)C1=CC(=O)c2c(O)ccc(O)c2C1=O | 15.6 | 86.1 |  | 9.1 | 11.3 | 15.1 | 99.9 | 
7 | CC(C)=CC[C@@H](O)C1=CC(=O)c2c(O)ccc(O)c2C1=O [SHIKONIN] | 14.1 |  | Toxic | 9.9 | 13.4 | 15.9 |  | inactive
8 | CC(C)=CCCC1=CC(=O)c2c(O)ccc(O)c2C1=O [DEOXYSHIKONIN] |  | 66.4 |  |  |  |  | 87.3 | 
9 | CCC(C)C(=O)O[C@H](CC=C(C)C)C1=CC(=O)c2c(O)ccc(O)c2C1=O (some centres undefined) |  |  |  |  |  |  | 86.1 | inactive
